ChEMBL document CHEMBL1909046, “DrugMatrix in vitro pharmacology data”

Legend:
[1] = target: T1, Alpha-1A adrenergic receptor (Rattus norvegicus, UniProt P43140); assay: DRUGMATRIX: Alpha-1A adrenergic receptor radioligand binding (ligand: prazosin); assay type: cell membranes, Wistar, Submaxillary gland, Membrane; conditions: Not Active = under 50% inhibition at 10 µM
T1 sequence (P43140 whole entry): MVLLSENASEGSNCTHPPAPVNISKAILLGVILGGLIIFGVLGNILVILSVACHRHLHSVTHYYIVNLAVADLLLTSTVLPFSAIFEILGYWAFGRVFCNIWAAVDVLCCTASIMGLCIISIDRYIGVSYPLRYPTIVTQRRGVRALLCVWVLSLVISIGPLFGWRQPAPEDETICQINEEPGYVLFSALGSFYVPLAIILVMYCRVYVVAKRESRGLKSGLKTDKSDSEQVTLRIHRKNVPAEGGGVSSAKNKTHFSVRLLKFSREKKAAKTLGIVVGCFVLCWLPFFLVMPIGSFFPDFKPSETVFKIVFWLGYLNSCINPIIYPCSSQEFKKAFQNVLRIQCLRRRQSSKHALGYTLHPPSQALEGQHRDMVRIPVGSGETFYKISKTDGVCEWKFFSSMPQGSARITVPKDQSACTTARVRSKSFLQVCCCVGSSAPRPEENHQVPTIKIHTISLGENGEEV

[2] = target: Beta-1 adrenergic receptor (Homo sapiens, UniProt P08588); assay: DRUGMATRIX: Adrenergic beta1 radioligand binding (ligand: [125I] Cyanopindolol); assay type: cell membranes, CHO-K1, Membrane; conditions: cho-k1; Not Active = under 50% inhibition at 10 µM
Beta-1 adrenergic receptor, sequence (P08588 whole entry): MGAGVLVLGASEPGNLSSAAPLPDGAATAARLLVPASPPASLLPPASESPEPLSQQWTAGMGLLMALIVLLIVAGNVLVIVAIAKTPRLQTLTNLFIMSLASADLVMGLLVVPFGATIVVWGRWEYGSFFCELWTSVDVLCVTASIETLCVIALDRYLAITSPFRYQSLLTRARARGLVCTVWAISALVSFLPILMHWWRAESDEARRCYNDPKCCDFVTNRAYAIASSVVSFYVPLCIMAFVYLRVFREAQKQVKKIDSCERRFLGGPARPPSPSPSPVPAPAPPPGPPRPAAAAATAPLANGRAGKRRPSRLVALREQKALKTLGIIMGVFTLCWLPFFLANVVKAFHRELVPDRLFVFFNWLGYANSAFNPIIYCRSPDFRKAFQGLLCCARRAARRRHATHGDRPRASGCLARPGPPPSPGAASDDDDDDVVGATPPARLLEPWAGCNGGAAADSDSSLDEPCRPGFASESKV

[3] = DRUGMATRIX: beta-Lactamase enzyme inhibition (substrate: Nitrocefin); parameters: species or system Bacillus cereus; conditions: Not Active = under 50% inhibition at 10 µM
[4] = DRUGMATRIX: Calcium Channel Type L, Benzothiazepine radioligand binding (ligand: [3H] Diltiazem); assay type: cell membranes, Rattus norvegicus, Wistar, Brain, Membrane; conditions: Not Active = under 50% inhibition at 10 µM
[5] = target: Vascular endothelial growth factor receptor 1 (Homo sapiens, UniProt P17948); assay type: cell-based; conditions: huvec; further: in other assays of this panel Not Active means under 50% inhibition at 10 µM
Vascular endothelial growth factor receptor 1, sequence (P17948 whole entry): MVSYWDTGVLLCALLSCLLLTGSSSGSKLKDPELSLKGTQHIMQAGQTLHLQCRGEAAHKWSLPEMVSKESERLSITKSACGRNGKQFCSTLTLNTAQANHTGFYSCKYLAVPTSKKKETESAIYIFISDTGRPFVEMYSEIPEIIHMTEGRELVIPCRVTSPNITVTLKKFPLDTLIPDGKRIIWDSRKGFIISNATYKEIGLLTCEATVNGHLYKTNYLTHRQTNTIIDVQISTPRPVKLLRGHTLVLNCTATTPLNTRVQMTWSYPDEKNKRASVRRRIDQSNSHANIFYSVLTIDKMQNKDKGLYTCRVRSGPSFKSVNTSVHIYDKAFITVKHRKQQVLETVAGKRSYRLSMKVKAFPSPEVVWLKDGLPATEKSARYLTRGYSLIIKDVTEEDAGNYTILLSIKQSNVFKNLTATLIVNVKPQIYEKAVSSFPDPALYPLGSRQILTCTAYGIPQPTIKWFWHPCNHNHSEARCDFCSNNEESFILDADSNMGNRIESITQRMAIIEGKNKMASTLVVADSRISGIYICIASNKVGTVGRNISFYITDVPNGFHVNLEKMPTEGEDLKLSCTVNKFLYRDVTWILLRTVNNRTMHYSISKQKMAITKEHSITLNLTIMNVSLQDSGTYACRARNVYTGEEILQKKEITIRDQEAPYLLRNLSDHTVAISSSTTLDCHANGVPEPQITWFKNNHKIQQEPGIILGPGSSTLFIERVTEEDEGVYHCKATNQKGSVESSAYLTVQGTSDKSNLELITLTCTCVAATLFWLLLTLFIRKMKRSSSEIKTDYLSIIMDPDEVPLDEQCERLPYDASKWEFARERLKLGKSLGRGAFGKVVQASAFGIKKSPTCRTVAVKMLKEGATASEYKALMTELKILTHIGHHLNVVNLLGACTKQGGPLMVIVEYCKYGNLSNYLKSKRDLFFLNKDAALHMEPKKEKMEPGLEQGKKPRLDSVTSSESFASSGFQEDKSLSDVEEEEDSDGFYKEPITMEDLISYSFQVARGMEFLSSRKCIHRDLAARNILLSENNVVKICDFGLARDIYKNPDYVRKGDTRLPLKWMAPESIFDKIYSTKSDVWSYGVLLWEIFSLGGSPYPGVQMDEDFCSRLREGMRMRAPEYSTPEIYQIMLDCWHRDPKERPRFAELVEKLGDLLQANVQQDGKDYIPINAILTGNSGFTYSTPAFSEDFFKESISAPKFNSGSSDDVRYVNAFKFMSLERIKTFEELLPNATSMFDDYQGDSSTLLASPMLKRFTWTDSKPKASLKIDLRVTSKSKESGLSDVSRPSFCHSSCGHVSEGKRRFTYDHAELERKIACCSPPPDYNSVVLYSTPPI

D(4) dopamine receptor = target: T2, D(4) dopamine receptor (Homo sapiens, UniProt P21917); assay: DRUGMATRIX: Dopamine D4.2 radioligand binding (ligand: [3H] Spiperone); assay type: cell membranes, CHO-K1, Membrane; conditions: cho-k1; Not Active = under 50% inhibition at 10 µM
T2 sequence (P21917 whole entry): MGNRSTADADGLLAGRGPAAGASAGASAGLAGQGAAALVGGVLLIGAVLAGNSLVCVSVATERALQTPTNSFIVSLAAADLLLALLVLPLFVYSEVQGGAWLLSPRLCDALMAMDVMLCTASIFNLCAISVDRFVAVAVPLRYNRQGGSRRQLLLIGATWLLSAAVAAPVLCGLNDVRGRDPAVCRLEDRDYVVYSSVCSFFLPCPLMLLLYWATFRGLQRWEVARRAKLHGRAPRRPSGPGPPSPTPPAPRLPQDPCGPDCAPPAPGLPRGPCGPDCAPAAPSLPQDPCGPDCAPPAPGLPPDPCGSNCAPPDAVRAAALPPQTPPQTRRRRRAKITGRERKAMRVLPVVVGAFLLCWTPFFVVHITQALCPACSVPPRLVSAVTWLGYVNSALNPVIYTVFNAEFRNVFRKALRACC

[6] = DRUGMATRIX: GABAA, Chloride Channel, TBOB radioligand binding (ligand: [3H] TBOB); assay type: cell membranes, Rattus norvegicus, Wistar, Cerebral cortex, Membrane; conditions: Not Active = under 50% inhibition at 10 µM
[7] = DRUGMATRIX: Glutamate, NMDA, Phencyclidine radioligand binding (ligand: [3H] TCP); assay type: cell membranes, Rattus norvegicus, Wistar, Cerebral cortex, Membrane; conditions: Not Active = under 50% inhibition at 10 µM
Histamine H2 receptor = Histamine H2 receptor (Homo sapiens, UniProt P25021); assay type: cell membranes, CHO-K1, Membrane; conditions: cho-k1; further: in other assays of this panel Not Active means under 50% inhibition at 10 µM
Histamine H2 receptor, sequence (P25021 whole entry): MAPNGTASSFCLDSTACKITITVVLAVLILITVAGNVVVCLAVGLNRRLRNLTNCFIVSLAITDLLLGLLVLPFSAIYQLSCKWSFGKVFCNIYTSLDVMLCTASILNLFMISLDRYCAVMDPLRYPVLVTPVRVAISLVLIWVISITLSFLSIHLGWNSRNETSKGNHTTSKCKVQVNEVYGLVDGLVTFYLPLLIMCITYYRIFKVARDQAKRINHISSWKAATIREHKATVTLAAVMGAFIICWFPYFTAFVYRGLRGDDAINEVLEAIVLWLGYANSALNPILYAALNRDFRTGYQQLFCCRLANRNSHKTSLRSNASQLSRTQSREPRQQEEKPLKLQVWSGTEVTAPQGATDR

Leukotriene C4 synthase = target: T3, Leukotriene C4 synthase (Cavia porcellus, UniProt A6XA80); assay: biochemical; assay type: tissue-based, Lung;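 further: enzyme inhibition assay of leukotriene C4 synthase, using LTA4 as the substrate; in other assays of this panel Not Active means under 50% inhibition at 10 µM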
T3 sequence (A6XA80 whole entry): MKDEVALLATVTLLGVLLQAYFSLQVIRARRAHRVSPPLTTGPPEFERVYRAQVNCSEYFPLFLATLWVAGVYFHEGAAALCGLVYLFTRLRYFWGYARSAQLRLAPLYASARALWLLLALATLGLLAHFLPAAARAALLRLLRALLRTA

Melanocortin receptor 3 = Melanocortin receptor 3 (Homo sapiens, UniProt P41968); assay type: cell membranes, Membrane; conditions: hek293; further: in other assays of this panel Not Active means under 50% inhibition at 10 µM
Melanocortin receptor 3, sequence (P41968 whole entry): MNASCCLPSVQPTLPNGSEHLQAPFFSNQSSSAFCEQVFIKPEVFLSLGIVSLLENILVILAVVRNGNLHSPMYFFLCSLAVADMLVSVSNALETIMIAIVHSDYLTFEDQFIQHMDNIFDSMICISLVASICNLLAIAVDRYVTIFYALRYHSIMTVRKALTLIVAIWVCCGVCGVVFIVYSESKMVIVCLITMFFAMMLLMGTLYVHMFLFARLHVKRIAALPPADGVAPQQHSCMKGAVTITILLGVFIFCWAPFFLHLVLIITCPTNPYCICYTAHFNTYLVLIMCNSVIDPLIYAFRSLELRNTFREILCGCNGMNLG

Melanocortin receptor 4 = Melanocortin receptor 4 (Homo sapiens, UniProt P32245); assay type: cell membranes, Membrane; conditions: hek293; further: in other assays of this panel Not Active means under 50% inhibition at 10 µM
Melanocortin receptor 4, sequence (P32245 whole entry): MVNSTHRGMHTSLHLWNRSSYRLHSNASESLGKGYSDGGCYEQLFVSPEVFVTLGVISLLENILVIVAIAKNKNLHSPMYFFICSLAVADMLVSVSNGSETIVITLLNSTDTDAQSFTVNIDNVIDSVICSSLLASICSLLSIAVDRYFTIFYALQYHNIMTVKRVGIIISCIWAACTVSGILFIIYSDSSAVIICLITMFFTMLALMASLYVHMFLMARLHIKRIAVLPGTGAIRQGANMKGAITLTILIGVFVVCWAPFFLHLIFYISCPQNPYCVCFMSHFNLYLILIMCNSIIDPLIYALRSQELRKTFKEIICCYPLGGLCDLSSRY

[8] = target: T4, Neuropeptide Y receptor type 2 (Homo sapiens, UniProt P49146); assay type: cell membranes, Membrane; conditions: kan-ts; further: in other assays of this panel Not Active means under 50% inhibition at 10 µM
T4 sequence (P49146 whole entry): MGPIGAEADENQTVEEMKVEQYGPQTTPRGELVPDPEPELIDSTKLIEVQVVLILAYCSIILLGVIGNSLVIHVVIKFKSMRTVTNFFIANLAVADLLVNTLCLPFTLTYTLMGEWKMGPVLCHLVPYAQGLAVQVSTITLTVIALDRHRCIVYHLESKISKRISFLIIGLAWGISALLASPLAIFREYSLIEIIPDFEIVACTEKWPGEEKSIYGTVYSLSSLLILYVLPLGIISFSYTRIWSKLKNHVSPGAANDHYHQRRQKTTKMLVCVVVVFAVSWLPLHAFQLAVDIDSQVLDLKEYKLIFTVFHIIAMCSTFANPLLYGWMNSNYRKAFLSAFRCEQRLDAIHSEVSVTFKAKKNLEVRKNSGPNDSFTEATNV

[9] = DRUGMATRIX: Nicotinic Acetylcholine radioligand binding (ligand: [125I] Epibatidine); assay type: cell membranes, Membrane; conditions: imr-32; Not Active = under 50% inhibition at 10 µM
[10] = DRUGMATRIX: Platelet-Derived Growth Factor (PDGF) radioligand binding (ligand: [125I] PDGF); assay type: cell-based; conditions: nih3t3; Not Active = under 50% inhibition at 10 µM
Progesterone receptor = target: T5, Progesterone receptor (Bos taurus, UniProt Q690N0); assay: DRUGMATRIX: Progesterone radioligand binding (ligand: [3H] R-5020); assay type: tissue-based, Uterus; conditions: Not Active = under 50% inhibition at 10 µM
T5 sequence (Q690N0 whole entry): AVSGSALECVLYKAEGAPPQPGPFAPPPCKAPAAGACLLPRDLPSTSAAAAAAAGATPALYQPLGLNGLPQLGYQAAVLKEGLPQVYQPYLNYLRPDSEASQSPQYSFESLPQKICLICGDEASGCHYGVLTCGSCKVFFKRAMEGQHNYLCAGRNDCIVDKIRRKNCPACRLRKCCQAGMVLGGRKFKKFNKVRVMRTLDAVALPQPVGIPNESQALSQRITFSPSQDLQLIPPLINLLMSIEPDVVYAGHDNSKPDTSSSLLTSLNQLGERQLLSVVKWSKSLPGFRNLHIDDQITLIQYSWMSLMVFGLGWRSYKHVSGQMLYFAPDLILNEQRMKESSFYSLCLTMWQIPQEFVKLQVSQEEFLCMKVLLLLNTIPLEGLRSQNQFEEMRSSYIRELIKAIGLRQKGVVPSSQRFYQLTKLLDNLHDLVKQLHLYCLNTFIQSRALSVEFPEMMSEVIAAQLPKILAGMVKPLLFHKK

[11] = target: Tyrosine-protein kinase Fyn (Homo sapiens, UniProt P06241); assay: biochemical; assay type: cell-based, Insect cells; conditions: insect cells
Tyrosine-protein kinase Fyn, sequence (P06241 whole entry): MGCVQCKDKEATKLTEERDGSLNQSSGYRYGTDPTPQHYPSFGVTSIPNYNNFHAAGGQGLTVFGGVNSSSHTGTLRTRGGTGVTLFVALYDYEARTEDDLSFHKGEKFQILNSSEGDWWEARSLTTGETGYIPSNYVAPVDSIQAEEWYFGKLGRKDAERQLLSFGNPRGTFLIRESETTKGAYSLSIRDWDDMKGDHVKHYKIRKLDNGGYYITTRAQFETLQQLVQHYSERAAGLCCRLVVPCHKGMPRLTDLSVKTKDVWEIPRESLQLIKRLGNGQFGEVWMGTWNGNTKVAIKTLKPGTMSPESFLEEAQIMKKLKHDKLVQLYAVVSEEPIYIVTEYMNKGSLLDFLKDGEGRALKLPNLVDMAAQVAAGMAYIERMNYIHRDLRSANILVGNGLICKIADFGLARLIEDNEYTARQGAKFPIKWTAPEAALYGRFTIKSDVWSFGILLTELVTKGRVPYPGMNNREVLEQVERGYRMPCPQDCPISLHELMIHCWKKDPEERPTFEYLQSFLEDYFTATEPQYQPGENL

COc1ccc(C(CN(C)C)C2(O)CCCCC2)cc1 (configuration not stated) [VENLAFAXINE]
Not Active: IC50 [1] | IC50 [2] | IC50 [3] | Ki [3] | IC50 [4] | Ki [4] | IC50 [5] | IC50 (D(4) dopamine receptor) | IC50 [6] | Ki [6] | IC50 [7] | Ki [7] | IC50 (Histamine H2 receptor) | IC50 (Leukotriene C4 synthase) | IC50 (Melanocortin receptor 3) | IC50 (Melanocortin receptor 4) | IC50 [8] | IC50 [9] | Ki [9] | IC50 [10] | Ki [10] | IC50 (Progesterone receptor) | IC50 [11]

IVERMECTIN
Not Active: IC50 [1] | Ki [1] | IC50 [2] | Ki [2] | IC50 [3] | Ki [3] | IC50 [4] | Ki [4] | IC50 [5] | Ki [5] | IC50 (D(4) dopamine receptor) | Ki (D(4) dopamine receptor) | IC50 [6] | Ki [6] | IC50 [7] | Ki [7] | IC50 (Histamine H2 receptor) | Ki (Histamine H2 receptor) | IC50 (Leukotriene C4 synthase) | Ki (Leukotriene C4 synthase) | IC50 (Melanocortin receptor 3) | Ki (Melanocortin receptor 3) | IC50 (Melanocortin receptor 4) | Ki (Melanocortin receptor 4) | IC50 [8] | Ki [8] | IC50 [9] | Ki [9] | IC50 [10] | Ki [10] | IC50 (Progesterone receptor) | Ki (Progesterone receptor) | IC50 [11] | Ki [11]
